Test results from article PMC10607100, “Anticancer and Antiphytopathogenic Activity of Fluorinated Isatins and Their Water-Soluble Hydrazone Derivatives” (International Journal of Molecular Sciences, 2023).
Read-outs that look alike come from different tables or passages of the source.

How the values were obtained:
Micrococcus luteus B-109 = assay: Agar-well diffusion, bactericidal activity; format: cell-based; details: Micrococcus luteus
Method in brief: (§1)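 Bacteria spread on agar (BP medium; GYCa for X. campestris; pH 7.2–7.4) with 6-mm wells, each receiving 150 μL compound solution. Cultures grown at 28 °C; growth-inhibition zone width measured after 36–40 h.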

[1] = system: Pectobacterium atrosepticum 1043; assay: Agar-well diffusion, bactericidal activity; format: cell-based; details: Pectobacterium atrosepticum, 1043, 2 mM/L
Method in brief: as §1

[2] = system: Pectobacterium carotovorum subsp. carotovorum MI; assay: Agar-well diffusion, bactericidal activity; format: cell-based; details: Pectobacterium carotovorum, 2 mM/L
Method in brief: as §1

[3] = system: Pseudomonas fluorescens EL-2.1; assay: Agar-well diffusion, bactericidal activity; format: cell-based; details: Pseudomonas fluorescens, EL2.1, 2 mM/L
Method in brief: as §1

[4] = system: Xanthomonas campestris B-610; assay: Agar-well diffusion, bactericidal activity; format: cell-based; details: Xanthomonas campestris
Method in brief: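 Agar-well diffusion on GYCa agar (pH 7.2–7.4) seeded with bacterial suspension; 150 μL compound solution placed in 6-mm wells. Inhibition zone width measured after 36–40 h incubation.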

[5] = system: five representative phytopathogens; assay: Agar-well diffusion, bactericidal activity over the panel of phytopathogens; format: cell-based
Method in brief: as §1

[6] = system: Fusarium oxysporum IBPPM 543; assay: Mycelial radial growth inhibition; format: cell-based; details: Fusarium oxysporum; for inhibition of growth at 1 µM: 1 nmol/mL; for inhibition of growth at 1 µM / inhibition of growth at 5 µM / inhibition of growth at 20 µM / inhibition of growth at 40 µM: read-out: Inhibition value, I (%); for inhibition of growth at 5 µM: 5 nmol/mL; for inhibition of growth at 20 µM: 20 nmol/mL; for inhibition of growth at 40 µM: 40 nmol/mL
Method in brief: (§2)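 Compounds mixed into molten GPY agar at various concentrations; centre inoculated with a 5-mm mycelial plug from 10-day cultures and incubated at 27 °C. Colony diameter compared with untreated control until control plate was covered (usually 12 days); ≥4 replicates in two experiments.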

[7] = system: Phytophthora cactorum VKM F-985; assay: Mycelial radial growth inhibition; format: cell-based; details: Phytophthora cactorum; for inhibition of growth at 1 µM: 1 nmol/mL; for inhibition of growth at 1 µM / inhibition of growth at 5 µM / inhibition of growth at 15 µM / inhibition of growth / inhibition of growth at 40 µM: read-out: Inhibition value, I (%); for inhibition of growth at 5 µM: 5 nmol/mL; for inhibition of growth at 15 µM: 15 nmol/mL; for inhibition of growth: 27 nmol/mL; for inhibition of growth at 40 µM: 40 nmol/mL
Method in brief: as §2

[8] = Table S3, read-out: Inhibition zone width (mm), not less
[9] = IBPPM543, 72 h, age of the fungus 3 days
[10] = IBPPM543, 120 h, age of the fungus 5 days
[11] = IBPPM543, 168 h, age of the fungus 7 days
[12] = IBPPM543, 216 h, age of the fungus 9 days
[13] = 120 h, age of the fungus 5 days
[14] = 168 h, age of the fungus 7 days
[15] = 216 h, age of the fungus 9 days

EC50 ([6]; IBPPM543, 120 h, day 5, read-out: EC50, µg/mL at Day 5, F. oxysporum): 14.8 µg/mL | EC50 ([7]; 120 h, day 5, read-out: EC50, µg/mL at Day 5, P. cactorum): 18.2 µg/mL | melting point: 152 to 153 °C
SMILES: O=C(C[n+]1ccccc1)NN=C1C(=O)N(Cc2c(F)cccc2Cl)c2ccc(F)cc21.[Cl-] [Compound 5b, 1-(2-(2-(5-Fluoro-1-(6-chloro-2-fluorobenzyl)-2-oxoindolin-3-ylidene)hydrazinyl)-2-oxoethyl)pyridin-1-ium chloride]
zone of inhibition at 2000 µM (Micrococcus luteus B-109; B109, 2 mM/L, average of 3 experiments, read-out: width of the inhibition zone (mm), M. luteus): 4 mm | zone of inhibition at 2000 µM (Micrococcus luteus B-109; B109, Table S3, 2 mM/L, read-out: Inhibition zone width (mm), not less): ≥ 4 mm | zone of inhibition at 2000 µM ([1]; average of 3 experiments, read-out: width of the inhibition zone (mm), P. atrosepticum): 4 mm | zone of inhibition at 2000 µM [1, 8]: ≥ 4 mm | zone of inhibition at 2000 µM ([2]; average of 3 experiments, read-out: width of the inhibition zone (mm), P. carotovorum subsp. carotovorum): 3 mm | zone of inhibition at 2000 µM [2, 8]: ≥ 3 mm | zone of inhibition at 2000 µM ([3]; average of 3 experiments, read-out: width of the inhibition zone (mm), Ps. fluorescens): 2.5 mm | zone of inhibition at 2000 µM [3, 8]: ≥ 2 mm | zone of inhibition at 2000 µM ([4]; B610, 2 mM/L, average of 3 experiments, read-out: width of the inhibition zone (mm), X. campestris): 3 mm | zone of inhibition at 2000 µM ([4]; B610, Table S3, 2 mM/L, read-out: Inhibition zone width (mm), not less): ≥ 3 mm | zone of inhibition at 2000 µM ([5]; 36 h, 2 mM solutions, dependent on the test system used, read-out: inhibition zone width (mm), range over the test systems): 2.5 to 4 mm | bactericidal activity ([5]; Table S2): moderate bactericidal activity | inhibition of growth at 1 µM [6, 9]: 9% | inhibition of growth at 5 µM [6, 9]: 33% | inhibition of growth at 20 µM [6, 9]: 41% | inhibition of growth at 40 µM [6, 9]: 53% | inhibition of growth at 1 µM [6, 10]: 10% | inhibition of growth at 5 µM [6, 10]: 34% | inhibition of growth at 20 µM [6, 10]: 42% | inhibition of growth at 40 µM [6, 10]: 56% | inhibition of growth at 1 µM [6, 11]: 9% | inhibition of growth at 5 µM [6, 11]: 25% | inhibition of growth at 20 µM [6, 11]: 34% | inhibition of growth at 40 µM [6, 11]: 40% | inhibition of growth at 1 µM [6, 12]: 0% | inhibition of growth at 5 µM [6, 12]: 19% | inhibition of growth at 20 µM [6, 12]: 28% | inhibition of growth at 40 µM [6, 12]: 31% | inhibition of growth at 1 µM ([7]; 72 h, age of the fungus 3 days): 18% | inhibition of growth at 5 µM ([7]; 72 h, age of the fungus 3 days): 27% | inhibition of growth at 15 µM ([7]; 72 h, age of the fungus 3 days): 30% | inhibition of growth ([7]; 72 h, age of the fungus 3 days): 33% | inhibition of growth at 40 µM ([7]; 72 h, age of the fungus 3 days): 44% | inhibition of growth at 1 µM [7, 13]: 26% | inhibition of growth at 5 µM [7, 13]: 35% | inhibition of growth at 15 µM [7, 13]: 38% | inhibition of growth [7, 13]: 43% | inhibition of growth at 40 µM [7, 13]: 50% | inhibition of growth at 1 µM [7, 14]: 11% | inhibition of growth at 5 µM [7, 14]: 24% | inhibition of growth at 15 µM [7, 14]: 29% | inhibition of growth [7, 14]: 31% | inhibition of growth at 40 µM [7, 14]: 44% | inhibition of growth at 1 µM [7, 15]: 6% | inhibition of growth at 5 µM [7, 15]: 16% | inhibition of growth at 15 µM [7, 15]: 19% | inhibition of growth [7, 15]: 26% | inhibition of growth at 40 µM [7, 15]: 39%
